The values that follow come from BigSolDB 2.1.

On to `NC(=S)c1ccccn1`, for which the solubility (mole fraction) runs as follows: (in n-hexane, 293.15 K) 0.000199; (in n-hexane, 298.15 K) 0.000248; (in n-hexane, 303.15 K) 0.000325; (in n-hexane, 308.15 K) 0.000404; (in n-hexane, 313.15 K) 0.000518; (in n-octanol, 293.15 K) 0.00952. The solubility (mole fraction) is, setting by setting: (in n-octanol, 298.15 K) 0.012; (in n-octanol, 303.15 K) 0.0147; (in n-octanol, 308.15 K) 0.0183; (in n-octanol, 313.15 K) 0.0222.
For the molecule `CCc1cc(C(N)=S)ccn1`, the solubility (mole fraction) (in n-hexane, 293.15 K) worked out at 1.84e-05; the solubility (mole fraction) (in n-hexane, 298.15 K) is 2.22e-05; the solubility (mole fraction) (in n-hexane, 303.15 K) was 2.73e-05; the solubility (mole fraction) (in n-hexane, 308.15 K) turned out to be 3.2e-05; the solubility (mole fraction) (in n-hexane, 313.15 K) is 3.88e-05; the solubility (mole fraction) (in n-octanol, 293.15 K) stood at 0.00674. The solubility (mole fraction) is, setting by setting: (in n-octanol, 298.15 K) 0.00868; (in n-octanol, 303.15 K) 0.0108; (in n-octanol, 308.15 K) 0.0133; (in n-octanol, 313.15 K) 0.016.
For `NC(=S)c1ccncc1`, the solubility (mole fraction) reads like this: (in n-hexane, 293.15 K) 2.97e-06; (in n-hexane, 298.15 K) 3.73e-06; (in n-hexane, 303.15 K) 4.47e-06; (in n-hexane, 308.15 K) 5.47e-06; (in n-hexane, 313.15 K) 6.67e-06; (in n-octanol, 293.15 K) 0.00347. Also, the solubility (mole fraction) by setting is: (in n-octanol, 298.15 K) 0.00431; (in n-octanol, 303.15 K) 0.00516; (in n-octanol, 308.15 K) 0.0062; (in n-octanol, 313.15 K) 0.00744.

As usually defined, the solubility (mole fraction) is the moles of solute divided by all moles in the saturated solution.
